Here are results for 23 compounds from US20140113898A1, “BISARYLSULFONE AND DIALKYLARYLSULFONE COMPOUNDS AS CALCIUM CHANNEL BLOCKERS” (Zalicus Pharmaceuticals Ltd., priority 2010, published 2014).

Like-named read-outs stand apart in the source and are kept apart here.

One assay addresses T1, CaV2.2 (Homo sapiens, UniProt Q00975).
T1 construct: expressed in transfected cells; host or cells: unnamed doxycycline-inducible cell line
In words: High-throughput CaV2.2/Kir2.3 FLIPR fluorescent assay. The class given is cell-based. The note with it: Fluo-4 FLIPR, closed or inactivated state not stated. The method in brief:
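IC50 was derived by logistic fitting of the FLIPR Fluo-4 signal recorded over 3 min after a 130 mM KCl stimulus. Before stimulation, cells (channel expression induced with doxycycline, 29 °C on assay day) were kept in pH 7.4 buffer with 2 mM KCl for the closed-state format or 12.5 mM KCl for the inactivated-state format.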

The target of the next assay is T2, CaV3.2 (Homo sapiens, UniProt O95180).
T2 construct: expressed in transfected cells; host or cells: unnamed doxycycline-inducible cell line
T2 sequence (O95180 whole entry): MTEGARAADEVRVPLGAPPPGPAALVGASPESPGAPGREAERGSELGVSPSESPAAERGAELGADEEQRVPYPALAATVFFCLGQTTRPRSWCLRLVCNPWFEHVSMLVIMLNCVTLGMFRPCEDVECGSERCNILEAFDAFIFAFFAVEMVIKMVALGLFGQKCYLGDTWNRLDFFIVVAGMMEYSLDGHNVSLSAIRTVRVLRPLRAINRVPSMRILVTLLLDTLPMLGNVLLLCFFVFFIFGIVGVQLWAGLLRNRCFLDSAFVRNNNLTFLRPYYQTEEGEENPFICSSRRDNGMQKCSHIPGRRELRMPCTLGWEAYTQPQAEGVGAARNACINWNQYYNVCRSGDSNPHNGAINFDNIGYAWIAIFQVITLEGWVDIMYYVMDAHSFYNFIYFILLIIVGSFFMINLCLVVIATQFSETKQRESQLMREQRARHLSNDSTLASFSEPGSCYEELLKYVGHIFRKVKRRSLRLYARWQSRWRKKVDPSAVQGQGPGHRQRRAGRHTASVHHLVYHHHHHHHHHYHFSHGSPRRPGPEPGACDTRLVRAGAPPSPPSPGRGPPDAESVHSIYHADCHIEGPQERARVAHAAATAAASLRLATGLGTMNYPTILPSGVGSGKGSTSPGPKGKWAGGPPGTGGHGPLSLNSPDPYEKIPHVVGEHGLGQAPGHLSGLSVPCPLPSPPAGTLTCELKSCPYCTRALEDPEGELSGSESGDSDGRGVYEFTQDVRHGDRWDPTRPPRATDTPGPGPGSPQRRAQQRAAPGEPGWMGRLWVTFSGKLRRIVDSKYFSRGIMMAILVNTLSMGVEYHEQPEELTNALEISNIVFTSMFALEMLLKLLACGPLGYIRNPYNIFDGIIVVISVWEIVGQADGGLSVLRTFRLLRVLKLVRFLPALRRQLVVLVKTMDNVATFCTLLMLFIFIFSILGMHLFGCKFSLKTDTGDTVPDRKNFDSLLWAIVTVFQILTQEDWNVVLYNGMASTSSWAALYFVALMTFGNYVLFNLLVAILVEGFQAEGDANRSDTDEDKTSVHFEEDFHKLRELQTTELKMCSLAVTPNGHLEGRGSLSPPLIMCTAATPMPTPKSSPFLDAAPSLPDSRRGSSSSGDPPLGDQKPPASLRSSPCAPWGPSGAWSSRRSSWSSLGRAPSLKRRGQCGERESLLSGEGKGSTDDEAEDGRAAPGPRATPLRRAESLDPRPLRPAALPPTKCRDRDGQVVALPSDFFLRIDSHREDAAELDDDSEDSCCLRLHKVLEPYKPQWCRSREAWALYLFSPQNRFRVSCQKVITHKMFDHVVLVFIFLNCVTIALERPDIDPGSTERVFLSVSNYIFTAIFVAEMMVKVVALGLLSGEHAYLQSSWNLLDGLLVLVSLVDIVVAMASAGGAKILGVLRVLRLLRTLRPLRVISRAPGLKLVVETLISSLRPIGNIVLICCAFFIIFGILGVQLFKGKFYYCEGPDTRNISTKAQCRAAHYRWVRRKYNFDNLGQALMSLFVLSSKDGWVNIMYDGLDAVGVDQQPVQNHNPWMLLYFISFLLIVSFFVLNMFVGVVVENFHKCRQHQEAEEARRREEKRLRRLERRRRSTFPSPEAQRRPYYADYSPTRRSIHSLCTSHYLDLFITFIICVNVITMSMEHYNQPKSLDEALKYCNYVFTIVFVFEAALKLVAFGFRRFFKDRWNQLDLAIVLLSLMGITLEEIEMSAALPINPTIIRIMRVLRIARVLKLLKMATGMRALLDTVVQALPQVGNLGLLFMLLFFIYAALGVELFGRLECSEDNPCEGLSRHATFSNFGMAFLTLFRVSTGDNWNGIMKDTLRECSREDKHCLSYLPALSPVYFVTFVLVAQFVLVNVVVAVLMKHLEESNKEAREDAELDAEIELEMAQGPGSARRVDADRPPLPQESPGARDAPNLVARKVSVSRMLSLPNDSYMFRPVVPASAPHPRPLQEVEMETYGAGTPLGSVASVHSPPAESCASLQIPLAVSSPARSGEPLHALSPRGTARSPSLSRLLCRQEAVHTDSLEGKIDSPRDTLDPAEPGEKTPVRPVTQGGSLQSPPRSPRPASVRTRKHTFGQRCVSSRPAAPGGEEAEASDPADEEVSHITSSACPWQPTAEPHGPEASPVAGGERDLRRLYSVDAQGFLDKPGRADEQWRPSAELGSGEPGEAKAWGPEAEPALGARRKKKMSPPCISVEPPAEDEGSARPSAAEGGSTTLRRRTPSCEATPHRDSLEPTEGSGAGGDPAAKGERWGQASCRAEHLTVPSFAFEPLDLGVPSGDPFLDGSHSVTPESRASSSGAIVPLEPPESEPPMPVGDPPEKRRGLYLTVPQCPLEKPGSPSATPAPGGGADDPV
The experiment in a line: High-throughput CaV3.2/Kir2.3 T-type FLIPR fluorescent assay. The class given is cell-based. To be noted: Fluo-4 FLIPR, closed or inactivated state not stated. On the procedure:
Cells were plated in 384-well, clear-bottom, black-walled, poly-D-lysine coated plates (Becton Dickinson, Franklin Lake, N.J.) 2 days prior to use in the FLIPR assay. 100 µL of cells (1.2×10^6 cell/mL) containing doxycyline (Sigma-Aldrich, 1.5 μg/mL; to induce channel expression) were added to each well using a Multidrop (Thermo Scientific, Waltham, Mass.) and were maintained in 5% CO2 incubator at 37° C. On the morning of the assay, cells were transferred to a 5% CO2 incubator at 29° C.
Cells were washed with a wash buffer containing (in mM): 118 NaCl, 18.4 HEPES, 11.7 D-glucose, 2 CaCl2, 0.5 MgSO4, 4.7 KCl, and 1.2 KH2PO4, with the pH adjusted to 7.2 with
NaOH. 4.4 μM of the fluorescent indicator dye Fluo-4 (Invitrogen) prepared in pluronic acid (Sigma-Aldrich) was loaded into the wells and incubated for 45 minutes at 29° C. in 5% CO2. Cells were then rinsed with either a 2 mM KCl closed-state buffer (in mM: 138.5 NaCl, 10 HEPES, 10 D-glucose, 1 CaCl2, and 2 KCl, with the pH adjusted to 7.4 with NaOH) when performing the closed-state assay or 7.6 mM KCl inactivated-state buffer (in mM: 130.9 NaCl, 10 HEPES, 10 D-glucose, 1 CaCl2, and 7.6 mM KCl, with the pH adjusted to 7.4 with NaOH) when performing the inactivated-state assay. Concentration-dependent response curves were generated from 5 mM stock solutions prepared in DMSO (Sigma-Aldrich), diluted in either the 2 mM KCl buffer or 7.6 mM KCl buffer, and incubated for 20 minutes at 29° C. in 5% CO2. Calcium entry was evoked with an addition of either 12 mM KCl stimulation buffer (in mM: 128.5 NaCl, 10 HEPES, 10 D-glucose, 1 CaCl2, and 12 KCl, with the pH adjusted to 7.4 with NaOH) or 14.5 mM KCl stimulation buffer (in mM: 126 NaCl, 10 HEPES, 10 D-glucose, 1 CaCl2, and 14.5 KCl, with the pH adjusted to 7.4 with NaOH) for the closed-state or inactivated-state assay respectively. A change in the Fluo-4 fluorescence signal was assessed using FLIPR^TETRA™ instrument (Molecular Devices, Sunnyvale, Calif.) for 3 minutes following the elevation of extracellular KCl using an illumination wavelength of 470-495 nm with emissions recorded at 515-575 nm.
Concentration-dependent response curves were obtained by comparing the fluorescence signal in the presence of compound and fitted with a logistic function (1) to obtain the concentration that inhibited 50% (IC50) of the RLU signal using OriginPro v.7.5 software (OriginLab, Northampton, Mass.).
To assess the quality of the FLIPR assays the Z-factor (2) was used to quantify the suitability of the assay conditions using the following equation: […]
Data are expressed as mean and standard deviation (SD).

Where [1] appears, read: Table 4, read-out: FLIPR data CaV2.2.
[2] abbreviates: Table 5, read-out: FLIPR data CaV2.2.

With `O=C(NCc1ccccc1S(=O)(=O)c1cccc(C(F)(F)F)c1)c1cn2cc(C(F)(F)F)ccc2n1` [Compound 51, 6-(trifluoromethyl)-N-(2-((3-(trifluoromethyl)phenyl)sulfonyl)benzyl)imidazo[1,2-a]pyridine-2-carboxamide], the IC50 on CaV2.2 (setting [1]) worked out at 1230 nM; against CaV3.2 (Table 4), 1050 nM. In the same order, the values of `O=C(CCC(F)(F)F)NCc1ccc(S(=O)(=O)c2cccc(C(F)(F)F)c2)cc1` [Compound 53, 4,4,4-trifluoro-N-(4-((3-(trifluoromethyl)phenyl)sulfonyl)benzyl)butanamide] are 340 nM and 4100 nM. In the same order, the values of `O=C(CCC(F)(F)F)NCc1cccc(S(=O)(=O)c2cccc(C(F)(F)F)c2)c1` [Compound 54, 4,4,4-trifluoro-N-(3-((3-(trifluoromethyl)phenyl)sulfonyl)benzyl)butanamide] are 400 nM and 6710 nM. As to `O=C1c2ccc(C(F)(F)F)nc2CN1Cc1ccc(S(=O)(=O)c2cccc(C(F)(F)F)c2)cc1` [Compound 56, 2-(trifluoromethyl)-6-(4-((3-(trifluoromethyl)phenyl)sulfonyl)benzyl)-6,7-dihydro-5H-pyrrolo[3,4-b]pyridin-5-one], the IC50 at CaV2.2 (setting [1]) worked out at 310 nM; against CaV3.2 (Table 4), 2660 nM. For `O=C1c2ccc(C(F)(F)F)nc2CN1Cc1ccccc1S(=O)(=O)c1cccc(C(F)(F)F)c1` [Compound 58, 2-(trifluoromethyl)-6-(2-((3-(trifluoromethyl)phenyl)sulfonyl)benzyl)-6,7-dihydro-5H-pyrrolo[3,4-b]pyridin-5-one], the IC50 at CaV2.2 (setting [1]) is 2680 nM; at CaV3.2 (Table 4), 1480 nM. Regarding `O=C(NCc1ccc(S(=O)(=O)c2cccc(C(F)(F)F)c2)cc1)[C@@H]1CCCCN1` [Compound 79, (S)-N-(4-((3-(trifluoromethyl)phenyl)sulfonyl)benzyl)piperidine-2-carboxamide], the IC50 at CaV2.2 (setting [1]) is 1450 nM; at CaV3.2 (Table 4) it was 8440 nM. With `O=C(NCc1ccc(S(=O)(=O)c2cccc(C(F)(F)F)c2)cc1)[C@H]1CCCCN1` [Compound 80, (R)-N-(4-((3-(trifluoromethyl)phenyl)sulfonyl)benzyl)piperidine-2-carboxamide], the IC50 worked out at 770 nM at CaV2.2 (setting [1]) and 8700 nM against CaV3.2 (Table 4). In the same order, the values of `NC1(C(=O)NCc2ccc(S(=O)(=O)c3cccc(C(F)(F)F)c3)cc2)CCC2(CC1)OCCO2` [Compound 83, 8-amino-N-(4-((3-(trifluoromethyl)phenyl)sulfonyl)benzyl)-1,4-dioxaspiro[4.5]decane-8-carboxamide] are 1310 nM and 9220 nM. For `NC1(CC(=O)NCc2ccc(S(=O)(=O)c3cccc(C(F)(F)F)c3)cc2)CCCCC1` [Compound 86, 2-(1-aminocyclohexyl)-N-(4-((3-(trifluoromethyl)phenyl)sulfonyl)benzyl)acetamide] the same measures were 310 nM and 5500 nM. For `O=C(NCc1ccc(S(=O)(=O)c2cccc(C(F)(F)F)c2)cn1)c1cnc(C(F)(F)F)nc1` [Compound 97, 2-(trifluoromethyl)-N-((5-((3-(trifluoromethyl)phenyl)sulfonyl)pyridin-2-yl)methyl)pyrimidine-5-carboxamide] the same measures were 1930 nM and 4170 nM. In the case of `O=C(NCc1ccc(S(=O)(=O)c2cccc(C(F)(F)F)c2)cn1)c1ccnc(C(F)(F)F)n1` [Compound 98, 2-(trifluoromethyl)-N-((5-((3-(trifluoromethyl)phenyl)sulfonyl)pyridin-2-yl)methyl)pyrimidine-4-carboxamide], the values for the IC50 at CaV2.2 (setting [1]) and against CaV3.2 (Table 4) were 1490 nM and 9160 nM, respectively. Consider `CC(C)(C(=O)N1CCC(c2nc3ccccc3[nH]2)CC1)S(=O)(=O)c1cccc(C(F)(F)F)c1` [Compound 138, 1-(4-(1H-benzol[d]imidazol-2-yl)piperidin-1-yl)-2-methyl-2-((3-(trifluoromethyl)phenyl)sulfonyl)propan-1-one], for which the values for the IC50 at CaV2.2 (setting [2]) and against CaV3.2 (Table 5) were 1480 nM and 5100 nM, respectively.

`CC(C)(C(=O)NCc1cccnc1Oc1ccc(F)cc1)S(=O)(=O)c1cccc(C(F)(F)F)c1` [Compound 146, N-((2-(4-fluorophenoxy)pyridin-3-yl)methyl)-2-methyl-2-((3-(trifluoromethyl)phenyl)sulfonyl)propanamide]: the IC50 on CaV2.2 (setting [2]) stood at 440 nM; at CaV3.2 (Table 5), 7210 nM.

`CC(C)Oc1cccnc1C(C)(C)NC(=O)C(C)(C)S(=O)(=O)c1cccc(C(F)(F)F)c1` [Compound 147, N-(2-(3-isopropoxypyridin-2-yl)propan-2-yl)-2-methyl-2-((3-(trifluoromethyl)phenyl)sulfonyl)propanamide]: the IC50 at CaV2.2 (setting [2]) stood at 1390 nM; on CaV3.2 (Table 5) it was 3530 nM. With `COc1ccc(C(=O)NCC(C)(C)S(=O)(=O)c2cccc(C(F)(F)F)c2)cc1Cl` [Compound 160, 3-chloro-4-methoxy-N-(2-methyl-2-((3-(trifluoromethyl)phenyl)sulfonyl)propyl)benzamide], the IC50 at CaV2.2 (setting [2]) is 1020 nM; at CaV3.2 (Table 5) it was 3990 nM.

Take `CC(C)(CNC(=O)c1ccnc(N2CCCC2)c1)S(=O)(=O)c1cccc(C(F)(F)F)c1` [Compound 161, N-(2-methyl-2-((3-(trifluoromethyl)phenyl)sulfonyl)propyl)-2-(pyrrolidin-1-yl)isonicotinamide]: the IC50 was 1120 nM at CaV2.2 (setting [2]) and 8220 nM against CaV3.2 (Table 5). For `CC(C)(CNC(=O)c1ccc(Cl)cc1)S(=O)(=O)c1cccc(C(F)(F)F)c1` [Compound 165, 4-chloro-N-(2-methyl-2-((3-(trifluoromethyl)phenyl)sulfonyl)propyl)benzamide] the same measures were 1530 nM and 6500 nM. In the same order, the values of `COc1ccc(S(=O)(=O)N2CCOCC2)cc1C(=O)NCC(C)(C)S(=O)(=O)c1cccc(C(F)(F)F)c1` [Compound 166, 2-methoxy-N-(2-methyl-2-((3-(trifluoromethyl)phenyl)sulfonyl)propyl)-5-(morpholinosulfonyl)benzamide] are 1310 nM and 9680 nM.

With `Cc1cc(Cl)ccc1C(=O)NCC(C)(C)S(=O)(=O)c1cccc(C(F)(F)F)c1` [Compound 168, 4-chloro-2-methyl-N-(2-methyl-2-((3-(trifluoromethyl)phenyl)sulfonyl)propyl)benzamide], the IC50 on CaV2.2 (setting [2]) stood at 1020 nM; against CaV3.2 (Table 5) it was 5160 nM.

Consider `COc1cc(C)ccc1C(=O)NCC(C)(C)S(=O)(=O)c1cccc(C(F)(F)F)c1` [Compound 170, 2-methoxy-4-methyl-N-(2-methyl-2-((3-(trifluoromethyl)phenyl)sulfonyl)propyl)benzamide], for which the IC50 at CaV2.2 (setting [2]) is 1860 nM; at CaV3.2 (Table 5), 7210 nM. With `CC1(C(=O)NCCC(C)(C)S(=O)(=O)c2cccc(C(F)(F)F)c2)CCCCN1` (stereo not shown) [Compound 222, 2-methyl-N-(3-methyl-3-((3-(trifluoromethyl)phenyl)sulfonyl)butyl)piperidine-2-carboxamide], the IC50 at CaV2.2 (setting [2]) turned out to be 3770 nM. For the compound `CC(C)(CCNC(=O)CC1(N)CCCCC1)S(=O)(=O)c1cccc(C(F)(F)F)c1` [Compound 223, 2-(1-aminocyclohexyl)-N-(3-methyl-3-((3-(trifluoromethyl)phenyl)sulfonyl)butyl)acetamide], on CaV2.2 (setting [2]), the IC50 is 360 nM.

`CC(C)C[C@H](CN)CC(=O)NCCC(C)(C)S(=O)(=O)c1cccc(C(F)(F)F)c1` [Compound 224, (S)-3-(aminomethyl)-5-methyl-N-(3-methyl-3-((3-(trifluoromethyl)phenyl)sulfonyl)butyl)hexanamide]: the IC50 against CaV2.2 (FLIPR data CaV2.2 (nM), Table 5) came out at 470 nM.
